Measured values from US20240165241A1, “TARGETED DELIVERY OF DRUG MOLECULES WITH DRUG LIGANDS CONJUGATED TO RNA NANOPARTICLE MOTION ELEMENTS” (Ohio State Innovation Foundation, priority 2022, published 2024).

Legend:
KB cells = assay: PI/Annexin V-FITC apoptosis assay; type: cell-based; conditions: 500 nM, 24 hr
Method: Cell apoptosis effect induced by RNA nanoparticles was evaluated using FITC Annexin V Apoptosis Detection Kit (BD Pharmingen) following manufacturer instructions. Briefly, 5×10^4 KB cells were seeded on a 24-well plate overnight. RNA nanoparticles and free MTX were added into 24-well plate at a final concentration of 500 nM. After a 24 hr incubation at 37° C. in a humidified 5% CO2 environment, cells were trypsinized to single cell suspension, washed with PBS buffer twice, and resuspended in 100 μL 1× Annexin V-FITC binding buffer. Following this 5 μL of Annexin V-FITC and 5 μL of PI were added into each sample and incubated at room temperature for 15 min. The samples were then transferred into flow tubes that contained 200 μL of 1× binding buffer for FACS analysis by FACS Calibur™ flow cytometer within 1 hr. Data were analyzed by FlowJo.

[1] = Water solubility of SN38 after conjugation to RNA (absorbance at 366 nm); type: physicochemical; conditions: absorbance at 366 nm versus concentration 12.5-800 μM
Method: Three solutions were prepared, RNA-SN38 in DEPC H2O, SN38 in DEPC H2O, and SN38 in DMSO. The absorbance at 366 nm of these three solutions with different concentrations (12.5-800 μM) were measured by NanoDrop 2000 Spectrophotometer (ThermoFisher). […] The picture of RNA-SN38 and SN38 in DEPC H2O at 800 μM were taken for comparison of clarity and turbidity.

Which cells underwent apoptosis (KB cells) does the source give for `CN(Cc1cnc2nc(N)nc(N)c2n1)c1ccc(C(=O)N[C@@H](CCC(=O)O)C(=O)O)cc1` [MTX, Methotrexate] here?
The cells underwent apoptosis was 69.4%.

With `CCc1c2c(nc3ccc(O)cc13)-c1cc3c(c(=O)n1C2)COC(=O)[C@]3(O)CC` [SN38, 7-Ethyl-10-hydroxycamptothecin] as the compound, how does the solubility in water [1] read?
The solubility in water was “poor water solubility”.
